Results reported in patent publication US11953435B2, “Zinc-responsive fluorophores” (Northwestern University, priority 2019, dated 2024).
“Also recorded” adds a separate entry of the source.

What was measured:
[1] = test system: MII egg; experiment: Confocal imaging of zinc in live MII eggs; format: cell-based, mouse
Text: [formula] [formula] [formula] where r(t) is the anisotropy, P(t) is the polarization, Ivv and Ivh are intensities with polarization in the vertical plane and the excitation in the vertical and horizontal planes respectively, Ihv and Ihh are intensities with polarization in the horizontal plane and the excitation in the vertical and horizontal planes respectively, and G is a g-factor that corrects for instrument sensitivity in the horizontal and vertical planes. Metal content of NMR samples. Inductively coupled plasma mass spectrometry (ICP-MS) was performed on a Thermo iCAP Q ICP-MS. 1 mg/mL of ZincBY-1 or ZincBY-4 in acetonitrile-d3 or acetonitrile-d3 only was evaporated overnight at 70° C. 150 μL of HNO3 was added and the samples were digested overnight at 70° C. Samples were diluted to a final nitric acid concentration of 3%. ICP-MS was operated in collision cell mode to reduce polyatomic interferences. An internal standard comprising ^7Li, ^89Y, and ^115In was used. Each sample was acquired using one survey run (10 sweeps) and three main (peak jumping) runs (100 sweeps). Data was fit to a standard curve using a standard containing ^45Sc, […], ^51V, ^52Cr, ^55Mn, ^56Fe, ^59Co, ^58Ni, ^63Cu, and ^64Zn from 5 ppb to 1000 ppb. Only ^56Fe and ^64Zn were detected in the samples above background levels. Computational Analysis of ZincBY-1 and ZincBY-4. All density functional theory (DFT) calculations were performed using version 4.0.1 of the ORCA electronic structure package (Ref. B6; incorporated by reference in its entirety). Guided by the results of earlier studies on BODIPY derivatives (Ref. B7; incorporated by reference in its entirety), the PBE0 functional (Refs. B8-B10; incorporated by reference in their entireties) was used to optimize the geometries of all molecules studied, while time dependent DFT (TD-DFT) calculations and charge analysis through the CHarges from ELectrostatic Potentials using a Grid-based method (CHELPG) (Ref. B11; incorporated by reference in its entirety) were performed with the oB97-XD3 functional (Ref. B12; incorporated by reference in its entirety). All calculations utilized the def2-TZVP basis set (Ref B13; incorporated by reference in its entirety) with the resolution of the identity approximation coupled with the chain of spheres exchange method (RIJCOSX) (Refs. B14-B16; incorporated by reference in their entireties), using the def2/J auxiliary basis (Ref B17; incorporated by reference in its entirety). Implicit solvation effects were included through the conductor like polarizable continuum model (CPCM) (Ref B18; incorporated by reference in its entirety). Calculated spectra were broadened by Gaussians of width 0.2 eV, and red shifted by 0.64 eV to better match the experimental spectra per Momeni and Brown (Ref. B7; incorporated by reference in its entirety). Animals and Egg Collection Mouse. To collect MII-arrested eggs, female mice of at least 5 weeks in age were injected with 5 IU pregnant mare serum gonadotropin (PMSG) followed by 5 IU human chorionic gonadotropin (hCG) 48 hours later. Intact cumulus-oocyte complexes (COCs) were isolated from the oviducts 15 hours after the administration of hCG. Cumulus cells were denuded using 0.3% (w/v) hyaluronidase. Animals were treated in accordance with the US National Institutes of Health Guide for the Care and Use of Laboratory Animals. Food and water were given ad libitum. The Northwestern University Institutional Animal Care and Use Committee approved all the protocols. C. Elegans. Wildtype strain Bristol N2 was used as a control strain in fluorescence microscopy experiments. EU1067: unc-119(ed3) ruIs32[unc-119(+) pie-1^promoter::GFP::H2B] III; ruIs57[unc-119(+) pie-P1^promoter:GFP::tubulin] was used as a marker for cortical granules in fluorescence microscopy experiments. EU1067 was provided by the Caenorhabditis Genetics Center (CGC). […]

[2] = previously reported value; read-out: zinc dissociation constant (reported); cited from earlier work
[3] = test system: MII egg; details: previously reported; cited from earlier work

CC(=O)NCCOc1ccc2n1[B-](F)(F)[N+]1=C(N(CCN(Cc3ccccn3)Cc3ccccn3)Cc3ccccn3)C=CC1=C2c1c(C)cc(C)cc1C [ZincBY-4, N-(2-((7-((2-(bis(pyridin-2-ylmethyl)amino)ethyl)(pyridin-2-ylmethyl)amino)-5,5-difluoro-10-mesityl-5H-5λ4,6λ4-dipyrrolo[1,2-c:2′,1′-f][1,3,2]diazaborinin-3-yl)oxy)ethyl)acetamide]
excitation at 488 nm in the MII egg ([1]; 50 nM probe): only ZincBY-4 exhibits a strong fluorescence intensity upon excitation at 488 nm; also recorded: Only ZincBY-4 was readily excited at 488 nm | excitation at 552 nm in the MII egg ([1]; 50 nM probe): both probes were excitable at 552 nm | region of fluorescence emission in MII eggs ([1]; 50 nM probe, 488 nm excitation): 575-750 nm | effect of TPEN on fluorescence in stained MII eggs ([1]; TPEN 5 μM): loss of fluorescence signal in the vesicle region; also recorded: loss in fluorescence was observed | spectral overlap with TubulinTracker Green in the MII egg ([1]; single excitation at 488 nm): virtually no ZincBY-4 emission detected in the 495-530 nm emission channel; also recorded: virtually no spectral overlap between the two probes | fluorescence change on chemical activation (ionomycin) of MII eggs ([1]; time lapse imaging, ionomycin 5 μM): increase in fluorescence intensity outside the egg while fluorescence intensity is lost in the periphery region; also recorded: both loss of zinc from the zinc granule region and increase of zinc outside the cell without the need of a second probe was observed | usable working concentration ([1]; where other probes require micromolar amounts): 50 nM | Stokes shift in cells ([1]; within cells): ~100 nm

COc1ccc2n1[B-](F)(F)[N+]1=C(N(CCN(Cc3ccccn3)Cc3ccccn3)Cc3ccccn3)C=CC1=C2c1c(C)cc(C)cc1C [ZincBY-1, reference compound]
Kd [2]: 2.6 nM | working concentrations lower than those employed with other probes [3]: 20-200 fold | excitation at 488 nm in the MII egg ([1]; 50 nM probe): Only ZincBY-4 was readily excited at 488 nm | excitation at 552 nm in the MII egg ([1]; 50 nM probe): both probes were excitable at 552 nm
